Assay results: article PMC12249711, “Comprehensive Evaluation of 1H-Isoindole-1,3(2H)-Dione Derivatives: Pharmacokinetic Studies and Analgesic Potential in Various Pain Models” (International Journal of Molecular Sciences, 2025)

How the values were obtained:
mice [1] = assay: Formalin test; type: in vivo, Albino Swiss mice; details: vs vehicle; for Reduction of pain reaction (licking duration), neurogenic phase: phase I (0–5 min); for Reduction of pain response, inflammatory phase: phase II (15–30 min)
Description: The pain reaction was induced by intraplantar (i.pl.) injection of 20 μL of 2.5% formalin solution into the right hind paw of the mouse (n = 136). […] Time (in seconds) spent on licking or biting the injected hind paw in selected intervals, 0–5 min (neurogenic phase) and 15–30 min (inflammatory phase), was measured in each group and was an indicator of nociceptive behavior. The procedure was based on the method described by with some modifications by.

mice [2] = assay: Glutamate-induced pain test; type: in vivo, Albino Swiss mice; details: vs vehicle
Description: Prior to the experimental procedure, individual mice were acclimatized in an observation chamber (n = 128). Thirty minutes before the test, the compounds under investigation were administered intraperitoneally (i.p.). A volume of 20 μL of a glutamate solution, containing 30 μmol per mouse paw, was subcutaneously injected into the ventral surface of the right hind paw to induce a pain response. Glutamate-induced nociception was assessed 15 min post-injection. The duration of time spent licking the injected paw was recorded using a chronometer and was interpreted as an indicator of nociception.

mice [3] = assay: Capsaicin-induced neurogenic pain test; type: in vivo, Albino Swiss mice; details: vs vehicle
Description: The examined compounds were administered 30 min before the test (n = 112). The pain reaction was induced by injecting 20 μL of a capsaicin solution prepared in saline (1.6 μg capsaicin per mouse paw) into the dorsal surface of the right hind paw for further details. The animals were immediately placed individually into glass beakers and the amount of time spent licking the injected paw was recorded for 5 min with a chronometer.

rats = assay: Carrageenan-induced mechanical hyperalgesia (pain pressure threshold, Randall-Selitto); type: in vivo, Wistar rats; details: for Pain Threshold: mean ± SEM, rats; for Increase in pain threshold: vs control
Description: The acute and local inflammation and paw edema was induced by intraplantar (i.pl.) injection of 0.1 mL of 1% carrageenan solution in PBS into the rat’s right hind paw, according to the modified method of Winter and Lence, as described previously; (n = 84). The paw volume was measured using the dislocation of the water column of the plethysmometer (Type a, 7140; Plethysmometer, Ugo Basile, Gemonio, Italy) before (V0) and at 1, 2, and 3 h (V1, V2, V3) after i.pl. carrageenan injection. […] Vehicle (1% Tween 80) was administered by the same route as the tested compounds.
Furthermore, we performed the pain pressure threshold test to assess heightened sensitivity to mechanical stimuli. The experiment was conducted based on the method described by Randall and Selitto [58], with certain modifications. An analgesymeter (AnalgesyMeter 37215, Ugo Basile, Gemonio, Italy) was used to gradually apply increasing pressure (measured in grams) to the plantar surface of the right hind paw of the rat until paw withdrawal occurred. At this point, the intensity of the applied force (in grams) was recorded as the withdrawal threshold. The maximum force intensity was set at 250 g. Carrageenan induces a decrease in the nociceptive threshold in response to a mechanical stimulus, a condition referred to as hyperalgesia. For each rat, paw withdrawal thresholds were recorded both before (0 h) and 1, 2, and 3 h after carrageenan administration (i.e., 3.5 h after intraperitoneal pretreatment with the tested compounds). […] The analgesic effect of the tested compounds was assessed in comparison with the control group (1% Tween 80); the injection was performed intraperitoneally within 30 min of carrageenan administration. An analgesic effect occurs when the compound administered produces a pain response with greater pressure than the control group.

mice [4] = assay: Streptozotocin-induced diabetic neuropathy, von Frey test (tactile allodynia); type: in vivo, Albino Swiss mice; details: diabetic (STZ) mice, 10 mg/kg i.p.; for Pain threshold after compound administration (von Frey): 30 min before the test; for Analgesic activity (von Frey): vs pre-drug threshold
Description: The induction of diabetes neuropathy in mice was achieved through the administration of streptozotocin (STZ), dissolved in PBS at a dose of 200 mg/kg in a constant volume of 0.1 mL/10 g of mouse body weight, intraperitoneally; (n = 50). Blood glucose levels were measured immediately prior to the administration of streptozotocin and 14 and 21 days following this administration in order to confirm the presence of hyperglycemia. For this purpose, 5 µL of blood was drawn from the tail vein of the mice using a strip glucose meter (AccuChek Active, Roche, Boulogne-Billancourt, France).
(§1) Furthermore, to assess the response to mechanical stimuli (i.e., tactile/mechanical) allodynia), the von Frey test was carried out with application of the electronic von Frey unit (Panlab, Cornellà de Llobregat, Spain) equipped with a fiber, the distal end of which was applied to the right hind paw of the mouse. The device automatically recorded the pressure force (in grams) applied until the paw withdrawal response occurred. In the absence of pain, an increase in the pressure value was observed. The force at which the animal withdrew its paw was considered the pain threshold for the mechanical stimulus. Measurements were taken before streptozotocin administration (in normoglycemic mice) and again 21 days later, both before and after compound administration, in diabetic mice (glucose level > 300 mg/dL) that had developed mechanical allodynia. On the day of the experiment, each mouse was placed in an observation chamber with a wire mesh bottom and was allowed to habituate for 1 h. After the habituation period, in order to obtain baseline values, each mouse was tested 3 times alternately in each hind paw, allowing at least 30 s between each measurement. Then, the mice were pretreated intraperitoneally with compound or vehicle, and 30 min later the animals were tested again and three measurements were taken, the mean of which was calculated to obtain the mean values after drug administration for each mouse. The anti-allodynic effect was defined as an increase in the pressure force value required to elicit a pain response, compared to the control group.

mice [5] = assay: Oxaliplatin-induced neuropathic pain, von Frey test (tactile allodynia); type: in vivo, Albino Swiss mice; details: 10 mg/kg i.p.
Description: as §1
To assess the response to mechanical stimuli (i.e., tactile/mechanical allodynia), the von Frey test was performed using an electronic von Frey device (Bioseb, Vitrolles, France), as described in Section 4.4.5. In this assay, measurements were taken before and 3 h after oxaliplatin administration, as well as 7 days later. […] A total of 30 min after administration, the assessment was repeated using the same procedure.

[6] = design: method as in PMID 35396875; details: within the tested dose range; cited from earlier work
[7] = 10 mg/kg i.p., 0 h (before carrageenan)
[8] = 10 mg/kg i.p., 2 h after carrageenan
[9] = 10 mg/kg i.p., 3 h after carrageenan
[10] = 20 mg/kg i.p., 0 h (before carrageenan)
[11] = 20 mg/kg i.p., 1 h after carrageenan
[12] = 20 mg/kg i.p., 2 h after carrageenan
[13] = 20 mg/kg i.p., 3 h after carrageenan
[14] = early phase, 3 h after oxaliplatin
[15] = late phase, 7 days after oxaliplatin

| SMILES | Reduction of pain reaction (licking duration), neurogenic phase (mice [1]; 5 mg/kg i.p.) | Reduction of pain reaction (licking duration), neurogenic phase (mice [1]; 10 mg/kg i.p.) | Reduction of pain reaction (licking duration), neurogenic phase (mice [1]; 20 mg/kg i.p.) | Reduction of pain response, inflammatory phase (mice [1]; 10 mg/kg i.p.) | Reduction of pain response, inflammatory phase (mice [1]; 20 mg/kg i.p.) | Reduction of glutamate-induced pain reaction (mice [2]; 20 mg/kg i.p.) | Reduction of capsaicin-induced neurogenic pain (mice [3]; 5 mg/kg i.p.) | Reduction of capsaicin-induced neurogenic pain (mice [3]; 10 mg/kg i.p.) | Reduction of capsaicin-induced neurogenic pain (mice [3]; 20 mg/kg i.p.) | Pain Threshold (rats; [7]) | Pain Threshold (rats; [8]) | Pain Threshold (rats; [9]) | Pain Threshold (rats; [10]) | Pain Threshold (rats; [11]) | Pain Threshold (rats; [12]) | Pain Threshold (rats; [13]) | Increase in pain threshold (rats; 20 mg/kg, 1 h) | Increase in pain threshold (rats; 20 mg/kg, 2 h) | Increase in pain threshold (rats; 20 mg/kg, 3 h) | Pain threshold after compound administration (von Frey) (mice [4]) | further results |
| --- | --- | --- | --- | --- | --- | --- | --- | --- | --- | --- | --- | --- | --- | --- | --- | --- | --- | --- | --- | --- | --- |
| O=C1c2ccccc2C(=O)N1CC(O)CN1CCN(C(c2ccccc2)c2ccccc2)CC1 (stereo not drawn) [Compound F4] | did not attenuate the nociceptive response | did not attenuate the nociceptive response | 48.3% | 29.5% | 42% | 53.7% | 42% | 33.6% | 57.25% | 131.7 ± 1.7 g | 141.7 ± 1.7 g | 139.2 ± 1.2 g | 134.2 ± 1.5 g | 144.2 ± 0.8 g | 145 ± 1.5 g | 140.8 ± 0.8 g | 14.4% | 16% | 14.2% | 3.98 ± 0.23 g | Pain Threshold (rats; 10 mg/kg i.p., 1 h after carrageenan): 139.2 ± 2.0 g; Increase in pain threshold (rats; 10 mg/kg, 1 h): 10.5%; Increase in pain threshold (rats; 10 mg/kg, 2 h): 13.4%; Increase in pain threshold (rats; 10 mg/kg, 3 h): 12.9%; Analgesic activity (von Frey) (mice [4]): 38.29%; Analgesic activity (von Frey) (mice [5]; [14]): 76.2%; Pain threshold after compound administration (von Frey) (mice [5]; [14]): 3.56 ± 0.32 g; Analgesic activity (von Frey) (mice [5]; [15]): 24.39%; Pain threshold after compound administration (von Frey) (mice [5]; [15]): 3.57 ± 0.33 g; Effect on locomotor activity / sedation [6]: did not impair locomotor activity |
| COc1ccccc1N1CCN(CC(O)CN2C(=O)c3ccccc3C2=O)CC1 (stereo not drawn) [Compound F2] | did not attenuate the nociceptive response | 44.6% | 53% | 73% | 87% | 68.7% | 31% | 56% | 74.7% | 132.5 ± 2.1 g | 127.5 ± 1.5 ns g | 130 ± 2.6 ns g | 132.5 ± 2.8 g | 147.5 ± 2.5 g | 141.7 ± 1.7 g | 139.2 ± 0.8 g | 10% | 14% | 11.3% | 4.58 ± 0.29 g | Reduction of pain response, inflammatory phase (mice [1]; 5 mg/kg i.p.): 51%; Reduction of glutamate-induced pain reaction (mice [2]; 5 mg/kg i.p.): 54.3%; Reduction of glutamate-induced pain reaction (mice [2]; 10 mg/kg i.p.): 62.9%; Effect on pain threshold (in words) (rats; 10 mg/kg, over 1–3 h): lack of analgesic activity; Analgesic activity (von Frey) (mice [4]): 39.4%; Analgesic activity (von Frey) (mice [5]; [14]): 81%; Pain threshold after compound administration (von Frey) (mice [5]; [14]): 3.91 ± 0.29 g; Analgesic activity (von Frey) (mice [5]; [15]): 45.45%; Pain threshold after compound administration (von Frey) (mice [5]; [15]): 4.0 ± 0.34 g; Effect on locomotor activity / sedation [6]: dose-dependent suppression of spontaneous locomotor activity |
